Test results from patent publication US7589097B2, “Triazol[4,5-d] pyramidine derivatives and their use as purinergic receptor antagonists” (Vernalis Research Limited, priority 2001, dated 2009).

Compound | melting point
CCc1cc(Cn2nnc3c(-c4ccco4)nc(N)nc32)ccn1 [Example 136, 3-(2-ethyl-4-pyridylmethyl)-7-(2-furyl)-3H-[1,2,3]triazolo[4,5-d]pyrimidine-5-amine] | 172.7 to 173.2 °C
CC(C)(C)OC(=O)n1ccc2cccc(Cn3nnc4c(-c5ccco5)nc(N)nc43)c21 [Example 137, tert-butyl 7-(5-amino-7-(2-furyl)-3H-[1,2,3]triazolo[4,5-d]pyrimidine-3-ylmethyl)indole-1-carboxylate] | 176.3 to 176.5 °C
CC(C)(C)OC(=O)n1ccc2c(Cn3nnc4c(-c5ccco5)nc(N)nc43)cccc21 [Example 138, tert-butyl 4-(5-amino-7-(2-furyl)-3H-[1,2,3]triazolo[4,5-d]pyrimidine-3-ylmethyl)indole-1-carboxylate] | 58.5 to 62.6 °C
Nc1nc(-c2ccco2)c2nnn(Cc3cccc4[nH]ccc34)c2n1 [Example 139, 7-(2-furyl)-3-(4-indolylmethyl)-3H-[1,2,3]triazolo[4,5-d]pyrimidine-5-amine] | 192.3 to 193.5 °C
CC(C)(C)OC(=O)NCc1ccc(Cn2nnc3c(-c4ccco4)nc(N)nc32)cc1 [Example 140, tert-butyl N-(4-(5-amino-7-(2-furyl)-3H-[1,2,3]triazolo[4,5-d]pyrimidine-3-ylmethyl)benzyl)carbamate] | 184 to 185.2 °C
Nc1ccc(Cn2nnc3c(-c4ccco4)nc(N)nc32)cc1 [Example 141, 3-(4-aminobenzyl)-7-(2-furyl)-3H-[1,2,3]triazolo[4,5-d]pyrimidine-5-amine] | 240.3 to 240.4 °C
CC(C)(C)OC(=O)n1ccc2cc(Cn3nnc4c(-c5ccco5)nc(N)nc43)ccc21 [Example 142, tert-butyl 5-(5-amino-7-(2-furyl)-3H-[1,2,3]triazolo[4,5-d]pyrimidine-3-ylmethyl)indole-1-carboxylate] | 189 to 189.1 °C
CC(C)(C)OC(=O)Nc1ccc(Cn2nnc3c(-c4ccco4)nc(N)nc32)cc1F [Example 143, tert-butyl N-(4-(5-amino-7-(2-furyl)-3H-[1,2,3]triazolo[4,5-d]pyrimidine-3-ylmethyl)-2-fluorophenyl)carbamate] | 167 to 167.3 °C
NCc1ccc(Cn2nnc3c(-c4ccco4)nc(N)nc32)cc1 [Example 144, 3-(4-aminomethylbenzyl)-7-(2-furyl)-3H-[1,2,3]triazolo[4,5-d]pyrimidine-5-amine] | > 300 °C (dec.)
CC(C)(C)OC(=O)n1ccc2ccc(Cn3nnc4c(-c5ccco5)nc(N)nc43)cc21 [Example 146, tert-butyl 6-(5-amino-7-(2-furyl)-3H-[1,2,3]triazolo[4,5-d]pyrimidine-3-ylmethyl)indole-1-carboxylate] | 180 to 180.5 °C
Nc1nc(-c2ccco2)c2nnn(Cc3ccc(N)c(F)c3)c2n1 [Example 147, 3-(4-amino-3-fluorobenzyl)-7-(2-furyl)-3H-[1,2,3]triazolo[4,5-d]pyrimidine-5-amine] | > 200 °C (dec.)
CC(C)(C)OC(=O)Oc1cc(F)c(Cn2nnc3c(-c4ccco4)nc(N)nc32)c(F)c1 [Example 148, tert-butyl (4-(5-amino-7-(2-furyl)-3H-[1,2,3]triazolo[4,5-d]pyrimidine-3-ylmethyl)-3,5-difluorophenyl)carbonate] | 259.8 to 259.9 °C
Nc1cccc(Cn2nnc3c(-c4ccccc4)nc(N)nc32)c1 [Example 151, 3-(3-aminobenzyl)-7-phenyl-3H-[1,2,3]triazolo[4,5-d]pyrimidine-5-amine] | 251.2 to 251.5 °C
Nc1nc(-c2ccco2)c2nnn(Cc3ccc4cc[nH]c4c3)c2n1 [Example 152, 7-(2-Furyl)-3-(6-indolylmethyl)-3H-[1,2,3]triazolo[4,5-d]pyrimidine-5-amine] | 298.9 to 299 °C
Nc1nc(-c2ccco2)c2nnn(Cc3ccc4[nH]ccc4c3)c2n1 [Example 153, 7-(2-furyl)-3-(5-indolylmethyl)-3H-[1,2,3]triazolo[4,5-d]pyrimidine-5-amine] | 226.8 to 227.4 °C
Nc1nc(-c2ccco2)c2nnn(Cc3cccc4cc[nH]c34)c2n1 [Example 154, 7-(2-furyl)-3-(7-indolylmethyl)-3H-[1,2,3]triazolo[4,5-d]pyrimidine-5-amine] | 295.3 to 295.5 °C
Nc1nc(-c2ccco2)c2nnn(Cc3cc(F)ccc3[N+](=O)[O-])c2n1 [Example 155, 3-(5-fluoro-2-nitrobenzyl)-7-(2-furyl)-3H-[1,2,3]triazolo[4,5-d]pyrimidine-5-amine] | 258.6 to 258.7 °C
CC(C)(C)OC(=O)NCc1ccccc1Cn1nnc2c(-c3ccco3)nc(N)nc21 [Example 157, tert-butyl N-(2-(5-amino-7-(2-furyl)-3H-[1,2,3]triazolo[4,5-d]pyrimidine-3-ylmethyl)benzyl)carbamate] | 204.2 to 204.4 °C
Nc1nc(-c2ccco2)c2nnn(Cc3ccc4nn[nH]c4c3)c2n1 [Example 158, 3-(1H-Benzotriazol-5-ylmethyl)-7-(2-furyl)-3H-[1,2,3]triazolo[4,5-d]pyrimidine-5-amine] | > 300 °C (dec.)
COc1cc([N+](=O)[O-])ccc1Cn1nnc2c(-c3ccco3)nc(N)nc21 [Example 159, 7-(2-furyl)-3-(2-methoxy-4-nitrobenzyl)-3H-[1,2,3]triazolo[4,5-d]pyrimidine-5-amine] | 235.9 to 237.8 °C
CC(=O)Nc1cccc(Cn2nnc3c(-c4ccco4)nc(N)nc32)c1 [Example 160] | 277.4 to 277.9 °C
NCc1ccccc1Cn1nnc2c(-c3ccco3)nc(N)nc21 [Example 161, 3-(2-aminomethylbenzyl)-7-(2-furyl)-3H-[1,2,3]triazolo[4,5-d]pyrimidine-5-amine] | > 250 °C (dec.)
CN(C)c1cccc(Cn2nnc3c(-c4ccco4)nc(N)nc32)c1 [Example 162, 3-(3-(N,N-dimethylamino)benzyl)-7-(2-furyl)-3H-[1,2,3]triazolo[4,5-d]pyrimidine-5-amine] | 195.1 to 195.2 °C
Nc1nc(-c2ccco2)c2nnn(Cc3cccc(CN4C(=O)c5ccccc5C4=O)n3)c2n1 [Example 164, 7-(2-furyl)-3-(6-phthalimidomethyl-2-pyridylmethyl)-3H-[1,2,3]triazolo[4,5-d]pyrimidine-5-amine] | 120.1 to 121 °C
Nc1nc(-c2ccco2)c2nnn(Cc3ccc(F)c(N)c3)c2n1 [Example 165, 3-(3-amino-4-fluorobenzyl)-7-(2-furyl)-3H-[1,2,3]triazolo[4,5-d]pyrimidine-5-amine] | 259.7 to 259.8 °C
Nc1nc(-c2ccco2)c2nnn(Cc3ccc4c(c3)CCO4)c2n1 [Example 166, 3-(2,3-dihydrobenzofuran-5-ylmethyl)-7-(2-furyl)-3H-[1,2,3]triazolo[4,5-d]pyrimidine-5-amine] | 210.3 to 211.2 °C
Nc1nc(-c2ccco2)c2nnn(Cc3cc(F)cc(F)c3F)c2n1 [Example 168, 7-(2-furyl)-3-(2,3,5-trifluorobenzyl)-3H-[1,2,3]triazolo[4,5-d]pyrimidine-5-amine] | 204 to 204.2 °C
Nc1nc(-c2ccco2)c2nnn(Cc3cc(F)ccc3N)c2n1 [Example 171, 3-(2-amino-5-fluorobenzyl)-7-(2-furyl)-3H-[1,2,3]triazolo[4,5-d]pyrimidine-5-amine] | 219.3 °C
